In PMC8567874, “Metronomic delivery of orally available pemetrexed-incorporated colloidal dispersions for boosting tumor-specific immunity” (Drug Delivery, 2021):
Where two headings read alike, the source gives them in different places.

Legend:
[1] = tested on: LLC cell-bearing mice; test: In vivo antitumor efficacy in LLC cell-bearing mice; design: species or system C57BL/6 mice
Method: The in vivo dose-dependent antitumor effects of oral PMX/DL(1:1)-CD compared to PMX-IV were evaluated by inoculating LLC cells at a density of 1 × 10^6 cells/100 μL PBS (pH 7.4) into the right dorsal flanks of 6-week-old female C57BL/6 mice. The oral doses for PMX/DL(1:1)-CD with antitumor activities without toxic effects were determined based on our previous study (Maharjan et al., [2019]). […] The body weights and tumor volumes of all mice were measured every 3 days. Tumor volume was then calculated as a^2 × b × 0.52, where a and b were the width and length of the tumor, respectively. The mice were sacrificed and the tumor masses were measured 21 days after drug administration.

[2] = tested on: CT26.CL25 cells; test: Immunofluorescence (confocal) analysis of ICD induction; format: cell-based; conditions: CT26.CL25, 300 µM, 48 h, confocal microscopy
Method: CT26.CL25 cells, cultured in coverslips at 1 × 10^4 cell density, were treated with 300 µM DL, 300 µM PMX, or PMX/DL (equivalent to 300 µM PMX) for 48 h. The PMX dose was converted from the Cmax of the pharmacokinetic profile in patients treated with 500 mg/m^2 PMX-IV (Li et al., [2007]). The cells were then washed with PBS, fixed in 10% formalin solution, and incubated with a cell membrane marker, Texas Red-X conjugated wheat germ agglutinin solution (5 µg/mL), for 10 min at room temperature. The cells were washed and permeabilized with 1% Triton-X solution for 40 min at room temperature. The cells were then incubated overnight with primary anti-CRT (1:200) or anti-HMGB-1 (1:200) antibodies at 4 °C after washing with PBS. On the following day, the cells were washed and incubated with secondary anti-rabbit Alexa Fluor 488 (1:400; Invitrogen; Thermo Fisher Scientific) for 1 h at room temperature and then stained with DAPI. Confocal laser scanning microscopy (TCS SP8; Leica Microsystems, Wetzlar, Germany) was used to obtain images.

[3] = In vivo pharmacokinetic study in rats; design: species or system Sprague–Dawley (SD) rats
Method: The separated plasma samples were kept at −80 °C before analysis and the drug concentration in each plasma sample was determined by LC-MS. […] Agilent Technologies, Santa Clara, CA, USA), conditioned with 500 µL of methanol, followed by 500 µL of deionized water. After loading the standards or samples into the cartridges, the unadsorbed particles were washed out with 500 µL of deionized water and methanol. […] PMX and IS were ionized using electrospray ionization (ESI) source in positive ion mode under a capillary voltage of 3.5 kV, drying gas flow rate of 3.1 L/min, and drying gas temperature of 300 °C. […] Pharmacokinetic parameters were estimated using a non-compartmental model in WinNonlin® software (ver. 5.3; Pharsight Corp., Mountain View, CA, USA). All data were expressed as means ± standard deviations (SDs), or standard errors of the mean (SEMs). Statistical analysis was performed by one-way analysis of variance (ANOVA) followed by Tukey’s multiple comparison test for unpaired data with more than three means. In all analyses, p < .05 was taken to indicate statistical significance.

[4] = In vitro Caco-2 cell monolayer permeability; format: in vitro ADME; conditions: human, equivalent to 50 µg/mL PMX, n = 7, read-out: Apparent permeability (Papp)
Method: To compare the in vitro apparent permeability (Papp) of PMX, PMX/DL(1:1), PMX/DL(1:2), PMX/DL(1:1)-CD, and PMX/DL(1:2)-CD across a Caco-2 (ATCC® HTB-37™; American Type Culture Collection, Manassas, VA, USA) cell monolayer, Caco-2 cells were seeded onto 24-well Transwell® filter inserts in Dulbecco's modified Eagle's medium (DMEM) containing 10% (v/v) fetal bovine serum and 1% penicillin/streptomycin, at a density of 1 × 10^5 cells/well, cultured for 14–16 days to form a confluent monolayer with the transepithelial electrical resistance (TEER) >350 Ω·cm^2. After the media in the apical and basolateral compartments were replaced with Hank’s balanced salt solution (HBSS) and stabilized for 20 min at 37 °C, 100 µL of the drug solution diluted with HBSS (equivalent to 50 µg/mL PMX) and 600 µL of HBSS were loaded into the apical and basolateral compartments in each well, respectively. During incubation at 37 °C, 100 µL of sample solution was withdrawn from each basolateral compartment, and the volume was replaced using fresh HBSS at 0.5, 1, 2, 3, 4, and 5 h. After passing through a polyvinylidene fluoride (PVDF) membrane filter (pore size: 0.45 µm), the concentration of PMX in each sample solution was measured using the HPLC system at 254 nm, with a Luna C18 column (4.6 × 250 mm, 5 µm, 100 Å) at 25 °C. […]

[5] = tested on: CT26.CL25 tumor-bearing mice; format: in vivo; conditions: 27 days after drug treatment, IV 150 mg/kg PMX
Method: To investigate the antitumor efficacy of oral PMX/DL(1:1)-CD and IV PMX given in combination with intraperitoneal aPD-1, 1 × 10^6 of CT26.CL25 cells in 100 µL of PBS (pH 7.4) were subcutaneously inoculated into each BALB/c mouse. When the average tumor volume reached 50–70 mm^3, mice were randomly divided into seven groups (10 mice per group): control (untreated), PMX-IV (150) (IV administration of 150 mg/kg PMX once every 3 weeks), aPD-1 (10) (intraperitoneal administration of 10 mg/kg aPD-1 once every 3 days), PMX-Oral (20) (once-daily oral administration equivalent to 20 mg/kg PMX), PMX/DL-CD (20) [once-daily oral administration PMX/DL(1:1)-CD equivalent to 20 mg/kg PMX], PMX-IV (150) + aPD-1 (10) (combination of IV administration of 150 mg/kg PMX once every 3 weeks, and intraperitoneal administration of 10 mg/kg aPD-1 once every 3 days), and PMX/DL-CD (20) + aPD-1 (10) (a combination of once-daily oral administration of PMX/DL(1:1)-CD equivalent to 20 mg/kg PMX and intraperitoneal administration of 10 mg/kg aPD-1 once every 3 days). During treatments, body weights and tumor volumes of mice in all seven groups were monitored once every 3 days, for 27 days. Tumor volumes in each mouse were calculated based on the following formula: 0.52 × a^2 × b, where a and b were the tumor widths and lengths, respectively.

[6] = Octanol/water apparent partition coefficient; format: physicochemical; conditions: n = 4, read-out: Log P (logarithm of the octanol/water partition coefficient)
Description: ^aLogarithm of the octanol/water partition coefficient. Each value represents the mean ± standard deviation (n = 4).

[7] = Sprague-Dawley, rat, plasma, IV, 10 mg/kg PMX
[8] = Sprague-Dawley, rat, plasma, oral, 20 mg/kg PMX

Which results are given for `Nc1nc2[nH]cc(CCc3ccc(C(=O)N[C@@H](CCC(=O)O)C(=O)O)cc3)c2c(=O)[nH]1` [PMX, Pemetrexed]?
Antitumor efficacy compared to the control group ([1]; IV 150 mg/kg PMX once every 3 weeks): 60.9%; Body weights compared to the control group ([1]; repeated administration for 3 weeks, all dose groups): did not change significantly; CRT-fluorescence compared to controls and DL-treated cells [2]: more intense; HMGB-1-release compared to controls and DL-treated cells [2]: higher; Cmax ([3]; IV, 10 mg/kg PMX): 32300 ± 1220 ng/mL; bioavailability ([3]; IV, 10 mg/kg PMX (reference)): 100%; AUC(0-inf) [3, 7]: 25300 ± 3560 ng·h/mL; AUC(0-t) [3, 7]: 25100 ± 3560 ng·h/mL; half-life [3, 7]: 57.2 ± 2.58 min; AUC(0-inf) [3, 8]: 8960 ± 89 ng·h/mL; AUC(0-t) [3, 8]: 3930 ± 380 ng·h/mL; Tmax [3, 8]: 30 min; half-life [3, 8]: 786 ± 109 min; bioavailability ([3]; Sprague-Dawley, rat, plasma, oral, 20 mg/kg PMX, read-out: Bioavailability): 7.8 ± 0.755%; Cmax ([3]; Sprague-Dawley, rat, plasma, oral, 20 mg/kg PMX, read-out: Cmax): 579 ± 73 ng/mL; Papp at 5 h, 50 µg/mL [4]: 1.2 ± 0.349 ×10⁻⁶ cm/s; Mice alive (survival) [5]: 50%; logP [6]: -1.14 ± 0.01
